In assay [1] the target is Serine/threonine-protein kinase 10 (Homo sapiens, UniProt O94804).
The target of assay [2] is Tyrosine-protein kinase Lck (Homo sapiens, UniProt P06239).
Assay [3] addresses T1, Cyclin-G-associated kinase (Homo sapiens, UniProt O14976).
T1 sequence (O14976 whole entry): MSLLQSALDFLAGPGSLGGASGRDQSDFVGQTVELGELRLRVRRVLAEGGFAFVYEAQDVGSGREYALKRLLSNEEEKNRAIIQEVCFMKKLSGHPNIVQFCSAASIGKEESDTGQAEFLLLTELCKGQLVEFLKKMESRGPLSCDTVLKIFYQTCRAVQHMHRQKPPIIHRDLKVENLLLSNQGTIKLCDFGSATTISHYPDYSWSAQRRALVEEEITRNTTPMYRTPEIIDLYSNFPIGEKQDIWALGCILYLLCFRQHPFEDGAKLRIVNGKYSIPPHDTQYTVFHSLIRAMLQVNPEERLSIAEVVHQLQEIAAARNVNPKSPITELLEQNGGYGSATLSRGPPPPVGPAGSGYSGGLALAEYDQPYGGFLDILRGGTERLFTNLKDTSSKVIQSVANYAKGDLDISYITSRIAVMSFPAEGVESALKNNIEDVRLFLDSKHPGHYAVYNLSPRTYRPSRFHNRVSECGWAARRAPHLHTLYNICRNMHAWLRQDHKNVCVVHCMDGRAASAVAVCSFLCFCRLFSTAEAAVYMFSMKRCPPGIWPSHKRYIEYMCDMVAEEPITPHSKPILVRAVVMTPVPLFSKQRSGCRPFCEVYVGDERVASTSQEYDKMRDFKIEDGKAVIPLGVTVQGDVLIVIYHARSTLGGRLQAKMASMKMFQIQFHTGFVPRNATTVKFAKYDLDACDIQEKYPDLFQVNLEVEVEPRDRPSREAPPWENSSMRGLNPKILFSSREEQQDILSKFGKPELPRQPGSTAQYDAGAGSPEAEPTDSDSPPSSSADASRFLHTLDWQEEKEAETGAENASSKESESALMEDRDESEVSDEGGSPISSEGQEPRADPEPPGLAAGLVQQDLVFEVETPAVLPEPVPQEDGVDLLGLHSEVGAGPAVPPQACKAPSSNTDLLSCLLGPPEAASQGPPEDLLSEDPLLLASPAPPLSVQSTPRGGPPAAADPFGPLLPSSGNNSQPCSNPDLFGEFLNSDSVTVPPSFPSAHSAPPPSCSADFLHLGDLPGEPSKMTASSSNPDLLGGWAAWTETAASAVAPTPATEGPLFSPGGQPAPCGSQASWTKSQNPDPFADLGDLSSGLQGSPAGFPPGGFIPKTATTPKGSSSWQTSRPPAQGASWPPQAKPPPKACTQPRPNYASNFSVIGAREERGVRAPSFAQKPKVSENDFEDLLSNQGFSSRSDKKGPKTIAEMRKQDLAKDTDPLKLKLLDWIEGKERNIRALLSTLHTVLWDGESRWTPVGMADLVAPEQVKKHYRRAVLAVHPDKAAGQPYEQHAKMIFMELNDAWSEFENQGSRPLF

The target in assay [4] is Membrane-associated progesterone receptor component 1 (Homo sapiens, UniProt O00264).
Chain of Membrane-associated progesterone receptor component 1 (O00264 whole entry): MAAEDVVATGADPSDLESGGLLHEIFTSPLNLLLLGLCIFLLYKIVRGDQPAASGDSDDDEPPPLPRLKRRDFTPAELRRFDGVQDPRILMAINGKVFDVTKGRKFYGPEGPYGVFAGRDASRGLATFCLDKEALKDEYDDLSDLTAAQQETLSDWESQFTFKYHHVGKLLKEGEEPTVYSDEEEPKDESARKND
In assay [5] the target is Dual specificity protein kinase CLK2 (Homo sapiens, UniProt P49760).
Chain of Dual specificity protein kinase CLK2 (P49760 whole entry): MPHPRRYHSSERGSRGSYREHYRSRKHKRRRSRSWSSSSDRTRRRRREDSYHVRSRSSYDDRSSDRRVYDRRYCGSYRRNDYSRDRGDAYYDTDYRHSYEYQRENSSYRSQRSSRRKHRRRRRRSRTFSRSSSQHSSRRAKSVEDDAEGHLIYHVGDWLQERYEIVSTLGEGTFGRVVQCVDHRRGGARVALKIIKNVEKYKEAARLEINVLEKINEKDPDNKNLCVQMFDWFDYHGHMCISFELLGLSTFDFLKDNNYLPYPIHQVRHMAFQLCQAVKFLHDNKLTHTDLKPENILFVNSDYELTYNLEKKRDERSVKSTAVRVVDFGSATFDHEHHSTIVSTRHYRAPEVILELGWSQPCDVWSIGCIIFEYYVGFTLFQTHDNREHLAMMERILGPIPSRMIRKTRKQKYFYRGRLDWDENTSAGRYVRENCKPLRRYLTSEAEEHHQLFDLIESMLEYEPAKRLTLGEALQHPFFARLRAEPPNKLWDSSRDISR
Assay [6] deals with T2, ATP-dependent 6-phosphofructokinase, platelet type (Homo sapiens, UniProt Q01813).
T2 sequence (Q01813 whole entry): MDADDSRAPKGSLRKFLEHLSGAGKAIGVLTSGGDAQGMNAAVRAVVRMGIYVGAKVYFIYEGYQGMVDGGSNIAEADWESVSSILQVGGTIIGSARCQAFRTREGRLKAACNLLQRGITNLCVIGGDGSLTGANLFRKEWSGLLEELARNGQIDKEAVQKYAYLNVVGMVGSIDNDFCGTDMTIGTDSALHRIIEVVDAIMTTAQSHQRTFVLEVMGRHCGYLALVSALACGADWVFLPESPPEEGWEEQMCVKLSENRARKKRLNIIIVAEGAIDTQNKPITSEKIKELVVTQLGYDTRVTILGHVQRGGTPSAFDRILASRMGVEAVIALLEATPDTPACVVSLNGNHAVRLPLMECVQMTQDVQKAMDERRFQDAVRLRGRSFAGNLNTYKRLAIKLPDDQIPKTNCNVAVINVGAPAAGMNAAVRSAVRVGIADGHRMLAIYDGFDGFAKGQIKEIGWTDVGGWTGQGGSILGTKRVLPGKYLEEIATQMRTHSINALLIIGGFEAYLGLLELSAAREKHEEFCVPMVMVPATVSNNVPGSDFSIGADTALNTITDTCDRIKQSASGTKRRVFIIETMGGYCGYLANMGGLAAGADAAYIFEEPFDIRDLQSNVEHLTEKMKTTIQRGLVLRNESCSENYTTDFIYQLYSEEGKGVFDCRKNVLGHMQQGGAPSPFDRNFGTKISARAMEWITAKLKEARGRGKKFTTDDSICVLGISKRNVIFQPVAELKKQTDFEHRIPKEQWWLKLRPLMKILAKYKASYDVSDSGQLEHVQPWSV

Assay [7] has as its target Cyclin-dependent kinase 5 (Homo sapiens, UniProt Q00535).
Assay [8] concerns the target T3, cGMP-dependent protein kinase 1 (Homo sapiens, UniProt Q13976).
T3 sequence (Q13976 whole entry): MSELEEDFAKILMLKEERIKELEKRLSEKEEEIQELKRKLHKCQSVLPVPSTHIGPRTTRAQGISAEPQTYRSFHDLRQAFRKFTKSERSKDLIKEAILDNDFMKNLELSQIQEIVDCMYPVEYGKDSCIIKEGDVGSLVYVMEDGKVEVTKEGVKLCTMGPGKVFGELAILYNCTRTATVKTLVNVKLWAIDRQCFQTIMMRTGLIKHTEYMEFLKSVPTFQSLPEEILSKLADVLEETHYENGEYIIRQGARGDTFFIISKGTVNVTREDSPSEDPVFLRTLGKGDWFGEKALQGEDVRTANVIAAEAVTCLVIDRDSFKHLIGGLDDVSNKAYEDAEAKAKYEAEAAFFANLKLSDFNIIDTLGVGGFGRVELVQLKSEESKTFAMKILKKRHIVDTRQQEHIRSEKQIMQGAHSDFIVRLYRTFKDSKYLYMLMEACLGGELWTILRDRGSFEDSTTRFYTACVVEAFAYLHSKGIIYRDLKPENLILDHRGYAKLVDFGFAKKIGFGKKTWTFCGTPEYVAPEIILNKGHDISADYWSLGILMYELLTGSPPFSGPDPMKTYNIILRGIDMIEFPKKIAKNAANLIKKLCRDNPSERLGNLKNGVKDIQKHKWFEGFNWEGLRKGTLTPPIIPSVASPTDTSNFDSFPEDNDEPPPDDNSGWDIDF

Counter-ions that a name gives are not always drawn. Activity calls are given as the source filed them. Rule as the data show it, for most assays here: actives have a measured Kd and inactives only a lower limit.
Also: in the data inactive means no Kd found up to 30 µM.

Chain of Cyclin-dependent kinase 5 (Q00535 whole entry): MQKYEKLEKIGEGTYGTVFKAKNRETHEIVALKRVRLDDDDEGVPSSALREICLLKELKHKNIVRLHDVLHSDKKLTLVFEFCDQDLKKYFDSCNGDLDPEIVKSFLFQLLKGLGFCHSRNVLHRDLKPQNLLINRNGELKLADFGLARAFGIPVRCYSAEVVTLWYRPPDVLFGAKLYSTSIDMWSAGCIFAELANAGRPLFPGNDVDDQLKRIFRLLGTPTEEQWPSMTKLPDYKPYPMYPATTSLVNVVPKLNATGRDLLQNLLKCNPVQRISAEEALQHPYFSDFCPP
Chain of Tyrosine-protein kinase Lck (P06239 whole entry): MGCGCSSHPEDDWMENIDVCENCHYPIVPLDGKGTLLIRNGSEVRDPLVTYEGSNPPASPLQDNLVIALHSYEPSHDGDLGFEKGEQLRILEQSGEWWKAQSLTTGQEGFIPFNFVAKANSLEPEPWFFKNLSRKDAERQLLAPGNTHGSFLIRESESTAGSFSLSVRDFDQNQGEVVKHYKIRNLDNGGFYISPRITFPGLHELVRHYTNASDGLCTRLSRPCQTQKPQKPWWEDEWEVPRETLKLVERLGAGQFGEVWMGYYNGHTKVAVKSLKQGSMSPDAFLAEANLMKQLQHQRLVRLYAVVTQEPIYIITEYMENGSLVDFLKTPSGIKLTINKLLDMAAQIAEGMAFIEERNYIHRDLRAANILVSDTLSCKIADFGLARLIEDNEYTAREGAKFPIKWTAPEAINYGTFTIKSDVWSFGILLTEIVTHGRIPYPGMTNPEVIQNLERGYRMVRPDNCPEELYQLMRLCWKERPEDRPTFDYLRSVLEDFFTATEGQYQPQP
Chain of Serine/threonine-protein kinase 10 (O94804 whole entry): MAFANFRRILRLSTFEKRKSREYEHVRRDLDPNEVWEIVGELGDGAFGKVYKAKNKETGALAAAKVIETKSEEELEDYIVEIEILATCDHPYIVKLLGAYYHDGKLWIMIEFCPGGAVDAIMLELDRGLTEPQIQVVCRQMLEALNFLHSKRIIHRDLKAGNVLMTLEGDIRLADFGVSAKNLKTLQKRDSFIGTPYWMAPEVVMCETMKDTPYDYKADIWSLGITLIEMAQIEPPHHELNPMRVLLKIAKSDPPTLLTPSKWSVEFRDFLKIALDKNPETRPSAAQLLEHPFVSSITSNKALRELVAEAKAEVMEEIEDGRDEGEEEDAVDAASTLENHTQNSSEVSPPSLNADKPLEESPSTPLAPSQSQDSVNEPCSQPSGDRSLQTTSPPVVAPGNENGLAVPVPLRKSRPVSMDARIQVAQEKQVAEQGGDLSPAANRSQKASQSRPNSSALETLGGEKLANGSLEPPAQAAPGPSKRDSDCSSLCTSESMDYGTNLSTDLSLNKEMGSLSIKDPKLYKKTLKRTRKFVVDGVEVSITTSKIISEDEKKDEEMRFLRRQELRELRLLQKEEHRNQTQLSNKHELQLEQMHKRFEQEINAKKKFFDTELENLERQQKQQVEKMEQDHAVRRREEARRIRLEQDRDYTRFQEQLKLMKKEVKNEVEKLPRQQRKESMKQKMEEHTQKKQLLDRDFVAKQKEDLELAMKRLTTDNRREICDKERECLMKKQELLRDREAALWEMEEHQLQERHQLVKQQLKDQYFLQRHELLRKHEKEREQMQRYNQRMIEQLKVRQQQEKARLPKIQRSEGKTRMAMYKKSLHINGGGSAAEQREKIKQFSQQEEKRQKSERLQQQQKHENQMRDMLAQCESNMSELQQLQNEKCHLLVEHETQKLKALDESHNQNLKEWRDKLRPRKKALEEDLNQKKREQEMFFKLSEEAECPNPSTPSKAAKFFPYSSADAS

On to `C=CC(=O)N1CCC[C@H](n2c(=O)n(-c3ccc(Oc4ccccc4)cc3)c3c(N)ncnc32)C1`, for which the Kd (commonly the equilibrium constant for the complex coming apart) in assay [1] was > 30 µM (inactive); in assay [2], 0.005 µM; in assay [3] it was > 30 µM (inactive); in assay [4], > 30 µM (inactive); in assay [5], > 30 µM (inactive); in assay [6] it was > 30 µM (inactive). For the same molecule, the Kd in assay [7] and in assay [8] was > 30 µM (inactive) each time.

For `COCc1c(-c2ccc(NC(=O)Nc3cc(C(F)(F)F)ccc3F)c(F)c2)c2c(N)ncnn2c1CN1CCOCC1`, the Kd in assay [1], in assay [2], in assay [3], in assay [4], in assay [5] and in assay [6] was > 30 µM (inactive) throughout. Also, the Kd in assay [7] and in assay [8] was > 30 µM (inactive) each time.

On to `Nc1ncnc2c1c(-c1cccc(OCc3ccccc3)c1)cn2[C@H]1C[C@@H](CN2CCC2)C1` [AEW-541], for which the Kd in assay [1], in assay [2], in assay [3], in assay [4], in assay [5] and in assay [6] was > 30 µM (inactive) in each case. Also, the Kd in assay [7] and in assay [8] was > 30 µM (inactive) each time.

As to `Cc1nc(NC(=O)N2CCC[C@H]2C(N)=O)sc1-c1ccnc(C(C)(C)C(F)(F)F)c1` [ALPELISIB], the Kd was > 30 µM (inactive) in assay [1]; > 30 µM (inactive) in assay [2]; 4.97 µM (active) in assay [3]; > 30 µM (inactive) in assay [4]; > 30 µM (inactive) in assay [5]; > 30 µM (inactive) in assay [6]. Moreover, the Kd in assay [7] and in assay [8] was > 30 µM (inactive) in each case.

Consider `Cc1csc(-c2nnc(Nc3ccc(Oc4ncccc4-c4ccnc(N)n4)cc3)c3ccccc23)c1` [AMG-900], for which the Kd in assay [1] is > 30 µM (inactive); in assay [2], > 30 µM (inactive); in assay [3], > 30 µM (inactive); in assay [4] it was > 30 µM (inactive); in assay [5], 3.22 µM (active); in assay [6], > 30 µM (inactive). Besides, the Kd in assay [7] and in assay [8] was > 30 µM (inactive) in each case.

Consider `C=CC(=O)Nc1cc2c(Nc3ccc(F)c(Cl)c3)ncnc2cc1C#CC(C)(C)N1CCN(C)CC1` [AV-412 FREE BASE], for which the Kd was 28.6 µM (active) in assay [1]; > 30 µM (inactive) in assay [2]; > 30 µM (inactive) in assay [3]; > 30 µM (inactive) in assay [4]; > 30 µM (inactive) in assay [5]; > 30 µM (inactive) in assay [6]. For the same molecule, the Kd in assay [7] and in assay [8] was > 30 µM (inactive) each time.

`NC(=O)Nc1cc(-c2cccc(F)c2)sc1C(=O)N[C@H]1CCCNC1` [AZD-7762]: the dissociation constant (Kd) in assay [1] is 0.36 µM (active); in assay [2] it was 1.29 µM (active); in assay [3] it was 0.202 µM (active); in assay [4], > 30 µM (inactive); in assay [5], > 30 µM (inactive); in assay [6] it was > 30 µM (inactive). Also, the Kd in assay [7] and in assay [8] was > 30 µM (inactive) in each case.

In the case of `Cc1cc(C(=O)NOCCO)c(Nc2ccc(I)cc2F)n(C)c1=O` [AZD-8330], the Kd in assay [1], in assay [2], in assay [3], in assay [4], in assay [5] and in assay [6] was > 30 µM (inactive) each time. The Kd in assay [7] and in assay [8] was > 30 µM (inactive) in each case.

As for `Cn1cnc2c(F)c(Nc3ccc(Br)cc3F)c(C(=O)NOCCO)cc21` [BINIMETINIB], the Kd in assay [1], in assay [2], in assay [3], in assay [4], in assay [5] and in assay [6] was > 30 µM (inactive) throughout. Also, the Kd in assay [7] and in assay [8] was > 30 µM (inactive) in each case.

Regarding `CCn1c(C(=O)N(C2CC2)C2CC2)cc2c3c(ncn3C)c(Nc3cc(C)n(C)n3)nc21` [BMS-911543], the Kd in assay [1], in assay [2], in assay [3], in assay [4], in assay [5] and in assay [6] was > 30 µM (inactive) throughout. Further, the Kd in assay [7] and in assay [8] was > 30 µM (inactive) in each case.

As for `COCC(=O)NC/C=C/c1ccc2ncnc(Nc3ccc(Oc4ccc(C)nc4)c(C)c3)c2c1` [CP-724714], the Kd in assay [1], in assay [2], in assay [3], in assay [4], in assay [5] and in assay [6] was > 30 µM (inactive) each time. In addition, the Kd in assay [7] and in assay [8] was > 30 µM (inactive) each time.

Turning to `CCS(=O)(=O)N1CCN(c2ccc(Nc3ncc(C(N)=O)c(NC4CC4)n3)cc2)CC1` [Cerdulatinib Hydrochloride], the Kd in assay [1] is > 30 µM (inactive); in assay [2] it was > 30 µM (inactive); in assay [3], 0.552 µM (active); in assay [4], > 30 µM (inactive); in assay [5], > 30 µM (inactive); in assay [6] it was > 30 µM (inactive). For the same molecule, the Kd in assay [7] and in assay [8] was > 30 µM (inactive) throughout.
